Measured values reported in patent publication US11246873B2, “Directed differentiation of oligodendrocyte precursor cells to a myelinating cell fate” (The Scripps Research Institute, priority 2011, dated 2022).
Entries after “also recorded” stand apart in the source; their conditions may differ.

What was measured:
[1] = test system: rat optic nerve derived OPCs; experiment: High content imaging assay of OPC differentiation (MBP immunostaining, OPERA); assay type: cell-based; conditions: OPCs in differentiation medium (2 ng/ml PDGF), 6 days
OPCs [2] = experiment: qRT-PCR of MBP and MOG expression in compound treated OPCs; assay type: cell-based, rat; conditions: EC90 concentrations, 6 days
Text: FIG. 2A-C. […] (A) Western blot analysis of OPCs treated with compounds at EC90 concentrations for 6 days. Total protein was isolated from cell pellets and probed for myelin basic protein (MBP) and myelin oligodendrocyte glycoprotein (MOG) using specific antibodies. (B-C) Quantitative RT-PCR (qRT-PCR) analysis of OPCs treated with compounds at EC90 concentrations for 6 days. Total RNA was isolated from cell pellets and reverse transcribed. MBP and MOG expression was quantified using specific probes and Taqman-based qRT-PCR. Expression was normalized to the internal controls β-actin and GAPDH. Fold change in gene expression over DMSO treated control cells is plotted for MBP (B) and MOG (C).

muscarinic receptor = experiment: Carbachol co-treatment in compound induced OPC differentiation (MBP staining); assay type: cell-based, rat; conditions: compounds at EC90 (benztropine 2.3 uM), serial dilutions of carbachol, 6 days
Procedure: Following 6 days of treatment, cells were fixed and stained for MBP. Plates were imaged using the OPERA high content screening system and MBP staining was quantified as described. […] OPCs were plated in 384-well plates at 5000 cells per well in media containing basal PDGF-αα. Cells were equilibrated with Ca^2+ sensitive Fluo-3AM® dye in HBSS for 30 min. […] Ca^2+ influx was immediately measured using the FLIPR TETRA® system.
OPCs express mAChRs, predominantly subtypes M1, M3, and M5 (F. Ragheb et al., J Neurochem, 77, 1396 (2001)). […] Activation of M1 and M3 mAChRs is coupled to downstream signal transduction events through phospholipase C, which results in increased intracellular calcium concentrations (F. Ragheb et al., J Neurochem, 77, 1396 (2001)) (FIG. 23C). M2 and M4 mAChR activation inhibits adenylatecyclase, leading to decreased intracellular cAMP levels (C. C. Felder, FASEB J, 9, 619 (1995); M. Lopez-Ilasaca et al., Science, 275, 394 (1997)). […] Acetylcholine is a known regulator of OPC proliferation and, as such, muscarinic receptor subtypes represent a reasonable class of therapeutic targets for the modulation of OPC proliferation and differentiation (F. De Angelis et al., Dev Neurobiol, (2011)).

OPCs [3] = experiment: Immunofluorescence analysis of mature oligodendrocyte markers (MBP, MOG, CNP, GalC, O1, O4); assay type: cell-based, rat; conditions: OPCs treated 6 days

Row | Compound | induction of OPC differentiation (MBP staining) [1] | induction of MBP expression (qRT-PCR) over DMSO (OPCs [2]) | induction of MOG expression (qRT-PCR) over DMSO (OPCs [2]) | effect of carbachol on compound induced OPC differentiation (muscarinic receptor) | markers of mature myelinating oligodendrocytes (MBP, MOG, CNP, GalC, O1, O4) by immunofluorescence (OPCs [3]) | effect of carbachol on compound induced OPC differentiation (muscarinic receptor; listed as benzatropine)
1 | CN1CCN(CCCN2c3ccccc3Sc3ccc(C(F)(F)F)cc32)CC1 [trifluoperazine] | promote OPC differentiation | two-fold | two-fold | did not inhibit; also recorded: no effect | confirmed the presence of multiple markers of mature myelinating oligodendrocytes | 
2 | CN1[C@@H]2CC[C@H]1C[C@@H](OC(c1ccccc1)c1ccccc1)C2 [benztropine] | promote OPC differentiation; also recorded: dose dependent activity | two-fold | two-fold | inhibited; also recorded: Potent inhibition; also recorded: antagonizes | confirmed the presence of multiple markers of mature myelinating oligodendrocytes; also recorded: expression of mature oligodendrocyte markers | dose dependent inhibition
